Laboratory results reported in patent US7547690B2, “Compounds for the treatment of Hepatitis C” (Bristol-Myers Squibb Company, priority 2007, dated 2009).
Where two headings read alike, the source gives them in different places.

Key:
HCV NS5B = biological target: T1, HCV NS5B (Hepatitis C virus genotype 1b, UniProt Q9WMX2); assay: HCV NS5B RdRp enzyme assay (standard / modified); format: biochemical; settings: HCV RdRp genotype 1b; standard or modified assay not specified; read-out: IC50
T1 construct: The protein was expressed with an 18 amino acid C-terminal truncation to enhance the solubility; made in house; host or cells: E. coli BL21(DE3)
Description: HCV NS5B RdRp cloning, expression, and purification. The cDNA encoding the NS5B protein of HCV, genotype 1b, was cloned into the pET21a expression vector. The protein was expressed with an 18 amino acid C-terminal truncation to enhance the solubility. The E. coli competent cell line BL21(DE3) was used for expression of the protein. Cultures were grown at 37° C. for ˜4 hours until the cultures reached an optical density of 2.0 at 600 nm. The cultures were cooled to 20° C. and induced with 1 mM IPTG. Fresh ampicillin was added to a final concentration of 50 μg/ml and the cells were grown overnight at 20° C.
Cell pellets (3 L) were lysed for purification to yield 15-24 mgs of purified NS5B. The lysis buffer consisted of 20 mM Tris-HCl, pH 7.4, 500 mM NaCl, 0.5% triton X-100, 1 mM DTT, 1 mM EDTA, 20% glycerol, 0.5 mg/ml lysozyme, 10 mM MgCl2, 15 ug/ml deoxyribonuclease I, and Complete TM protease inhibitor tablets (Roche). After addition of the lysis buffer, frozen cell pellets were resuspended using a tissue homogenizer. To reduce the viscosity of the sample, aliquots of the lysate were sonicated on ice using a microtip attached to a Branson sonicator. The sonicated lysate was centrifuged at 100,000×g for 1 hr at 4° C. and filtered through a 0.2 μm filter unit (Corning).
The protein was purified using two sequential chromatography steps: Heparin sepharose CL-6B and polyU sepharose 4B (Pharmacia). The chromatography buffers were identical to the lysis buffer but contained no lysozyme, deoxyribonuclease I, MgCl2 or protease inhibitor and the NaCl concentration of the buffer was adjusted according to the requirements for charging the protein onto the column. Each column was eluted with a NaCl gradient which varied in length from 5-50 column volumes depending on the column type. After the final chromatography step, the resulting purity of the enzyme is >90% based on SDS-PAGE analysis. The enzyme was aliquoted and stored at −80° C.
Standard HCV NS5B RdRp enzyme assay. HCV RdRp genotype 1b assays were run in a final volume of 60 μl in 96 well plates (Corning 3600). The assay buffer is composed of 20 mM Hepes, pH 7.5, 2.5 mM KCl, 2.5 mM MgCl2, 1 mM DTT, 1.6 U RNAse inhibitor (Promega N2515), 0.01 mg/ml BSA (Sigma B6917), and 2% glycerol. All compounds were serially diluted (3-fold) in DMSO and diluted further in water such that the final concentration of DMSO in the assay was 2%. HCV RdRp genotype 1b enzyme was used at a final concentration of 28 nM. A polyA template was used at 6 nM, and a biotinylated oligo-dT12 primer was used at 180 nM final concentration. Template was obtained commercially (Amersham 27-4110). Biotinylated primer was prepared by Sigma Genosys. 3H-UTP was used at 0.6 μCi (0.29 μM total UTP). Reactions were initiated by the addition of enzyme, incubated at 30 ° C. for 60 min, and stopped by adding 25 μl of 50 mM EDTA containing SPA beads (4 μg/μl, Amersham RPNQ 0007). Plates were read on a Packard Top Count NXT after >1 hr incubation at room temperature.
Modified HCV NS5B RdRp enzyme assay. A modified enzyme assay was performed essentially as described for the standard enzyme assay except for the following: The biotinylated oligo dT12 primer was precaptured on streptavidin-coated SPA beads by mixing primer and beads in assay buffer and incubating at room temperature for one hour. Unbound primer was removed after centrifugation. The primer-bound beads were resuspended in 20 mM Hepes buffer, pH 7.5 and used in the assay at final concentrations of 20 nM primer and 0.67 μg/μl beads. Order of addition in the assay: enzyme (1.75 nM) was added to diluted compound followed by the addition of a mixture of template (0.36 nM), 3H-UTP (0.6 μCi, 0.29 μM), and primer-bound beads, to initiate the reaction; concentrations given are final. Reactions were allowed to proceed for 4 hours at 30° C.
IC50 values for compounds were determined using seven different [I]. […]

HCV replicon cells = assay: HCV replicon FRET / luciferase assay; format: cell-based; settings: 50% reduction in FRET or luciferase activity in HCV replicon cells, read-out: EC50
Description: FRET Assay Preparation. The HCV FRET screening assay was performed in 96-well cell culture plates. The FRET peptide (Anaspec, Inc.) (Taliani et al., Anal. Biochem. 1996, 240, 60-67) contains a fluorescence donor, EDANS, near one end of the peptide and an acceptor, DABCYL, near the other end. The fluorescence of the peptide is quenched by […] resonance energy transfer (RET) between the donor and the acceptor, but as the NS3 protease cleaves the peptide the products are released from RET quenching and the fluorescence of the donor becomes apparent. The assay reagent was made as follows: 5× cell Luciferase cell culture lysis reagent from Promega (#E153A) diluted to 1× with dH2O, NaCl added to 150 mM final, the FRET peptide diluted to 20 μM final from a 2 mM stock.
To prepare plates, HCV replicon cells, with or without a Renilla luciferase reporter gene, were trypsinized and plated in a 96-well plate with titrated test compounds added in columns 3 through 12; columns 1 and 2 contained a control compound (HCV control inhibitor), and the bottom row contained cells with DMSO only. The plates were then placed in a CO2 incubator at 37° C.
Assays. Subsequent to addition of the test compounds described above (FRET Assay Preparation), at various times the plate was removed and Alamar blue solution (Trek Diagnostics, #00-100) was added to measure cellular toxicity. After reading in a Cytoflour 4000 instrument (PE Biosystems), plates were rinsed with PBS and then used for FRET assay by the addition of 30 ul of the FRET peptide assay reagent described above (FRET Assay Preparation) per well. The plate was then placed into the Cytoflour 4000 instrument which had been set to 340 excite/490 emission, automatic mode for up to 20 cycles and the plate read in a kinetic mode. Typically, the signal to noise using an endpoint analysis after the reads was at least three-fold. Alternatively, after Alamar blue reading, plates were rinsed with PBS, then used for luciferase assay using the Promega Dual-Glo Luciferase Assay System or the Promega EnduRen Live Cell Substrate assay.
Compound analysis was performed by quantification of the relative HCV replicon inhibition and the relative cytotoxicity values. To calculate cytoxicity values, the average Alamar Blue fluorescence signals from the control wells were set as 100% non-toxic. The individual signals in each of the compound test wells were then divided by the average control signal and multiplied by 100% to determine […]. To calculate the HCV replicon inhibition values, an average background value was obtained from the two wells containing the highest amount of HCV control inhibitor at the end of the assay period. These numbers were similar to those obtained from naïve Huh-7 cells. The background numbers were then subtracted from the average signal obtained from the control wells and this number was used as 100% activity. The individual signals in each of the compound test wells were then divided by the averaged control values after background subtraction and multiplied by 100% to determine percent activity. EC50 values were calculated as the concentration which caused a 50% reduction in FRET or luciferase activity. The two numbers generated for the compound plate, percent cytoxicity and percent activity, were used to determine compounds of interest for further analysis.

T1 sequence (Q9WMX2 2420-2992): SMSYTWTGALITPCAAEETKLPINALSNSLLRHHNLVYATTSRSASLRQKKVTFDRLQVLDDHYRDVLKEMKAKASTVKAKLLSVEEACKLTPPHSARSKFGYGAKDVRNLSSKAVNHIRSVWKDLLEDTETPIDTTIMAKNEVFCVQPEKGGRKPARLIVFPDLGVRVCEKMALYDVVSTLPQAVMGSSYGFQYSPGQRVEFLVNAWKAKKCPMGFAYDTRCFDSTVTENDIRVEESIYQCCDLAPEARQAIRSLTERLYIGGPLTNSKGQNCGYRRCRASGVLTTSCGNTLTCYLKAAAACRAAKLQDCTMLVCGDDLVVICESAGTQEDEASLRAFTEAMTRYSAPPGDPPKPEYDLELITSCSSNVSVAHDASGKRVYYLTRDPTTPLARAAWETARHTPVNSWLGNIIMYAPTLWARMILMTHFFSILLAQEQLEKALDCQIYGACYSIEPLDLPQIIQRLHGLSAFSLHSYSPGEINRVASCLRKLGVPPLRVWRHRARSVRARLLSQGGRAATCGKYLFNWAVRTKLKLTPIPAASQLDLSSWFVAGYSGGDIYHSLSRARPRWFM

Row | SMILES | IC50 (HCV NS5B) [nM] | EC50 (HCV replicon cells; Hepatitis C virus) [nM] | EC50 (HCV replicon cells) [nM]
1 | CCN1CC2CC(C1)N2C(=O)[C@]12C[C@H]1c1cc(OC)ccc1-c1c(C3CCCCC3)c3ccc(C(=O)NS(=O)(=O)N(C)C)cc3n1C2 | 2.4 to 500 | 2.4 to 500 | –
2 | COc1ccc2c(c1)C1CC1(C(=O)N1C3CC1CN(C)C3)Cn1c-2c(C2CCCCC2)c2ccc(C(=O)NS(=O)(=O)C(C)(C)C)cc21 (stereo not drawn) | 2.4 to 500 | 2.4 to 500 | –
3 | CCN1C[C@H]2C[C@@H]1CN2C(=O)C12CC1c1cc(OC)ccc1-c1c(C3CCCCC3)c3ccc(C(=O)NS(=O)(=O)N4CCC4)cc3n1C2 (stereo partly drawn) | 2.4 to 500 | 2.4 to 500 | –
4 | COc1ccc2c(c1)[C@@H]1C[C@]1(C(=O)N1CCC3CCC(C1)N3C)Cn1c-2c(C2CCCCC2)c2ccc(C(=O)NS(=O)(=O)N(C)C)cc21 (stereo partly drawn) | 2.4 to 500 | 2.4 to 500 | –
5 | COc1ccc2c(c1)C1CC1(C(=O)N1CCN3CCC1CC3)Cn1c-2c(C2CCCCC2)c2ccc(C(=O)NS(=O)(=O)N(C)C)cc21 (stereo not drawn) | 2.4 to 500 | 2.4 to 500 | –
6 | COc1ccc2c(c1)C1CC1(C(=O)N1C3CC1CN(Cc1ccccc1)C3)Cn1c-2c(C2CCCCC2)c2ccc(C(=O)NS(=O)(=O)CC(C)C)cc21 (stereo not drawn) | 2.4 to 500 | 2.4 to 500 | –
7 | COc1ccc2c(c1)C1CC1(C(=O)N1C3CC1CN(Cc1ccccc1)C3)Cn1c-2c(C2CCCCC2)c2ccc(C(=O)NS(=O)(=O)C3CC3)cc21 (stereo not drawn) | 2.4 to 500 | 2.4 to 500 | –
8 | COc1ccc2c(c1)C1CC1(C(=O)N1C[C@@H]3C[C@H]1CN3C)Cn1c-2c(C2CCCCC2)c2ccc(C(=O)NS(=O)(=O)C3CC3)cc21 (stereo partly drawn) [drawing 53] | 2.4 to 500 | – | 2.4 to 500
9 | COc1ccc2c(c1)C1CC1(C(=O)N1C3CC1CN(C)C3)Cn1c-2c(C2CCCCC2)c2ccc(C(=O)NS(=O)(=O)C3CCC3)cc21 (stereo not drawn) | 2.4 to 500 | 2.4 to 500 | –
10 | COc1ccc2c(c1)C1CC1(C(=O)N1C[C@@H]3C[C@H]1CN3C(=O)OC(C)(C)C)Cn1c-2c(C2CCCCC2)c2ccc(C(=O)NS(=O)(=O)C3CC3)cc21 (stereo partly drawn) | 2.4 to 500 | 2.4 to 500 | –
11 | COc1ccc2c(c1)C1CC1(C(=O)N1C3CN(C)CC1CN(Cc1ccccc1)C3)Cn1c-2c(C2CCCCC2)c2ccc(C(=O)NS(=O)(=O)N(C)C)cc21 (stereo not drawn) | 2.4 to 500 | 2.4 to 500 | –
12 | COc1ccc2c(c1)C1CC1(C(=O)N1CC3CCC1CN3)Cn1c-2c(C2CCCCC2)c2ccc(C(=O)NS(=O)(=O)CC(F)(F)F)cc21 (stereo not drawn) | 2.4 to 500 | > 1000 | –
13 | COc1ccc2c(c1)C1CC1(C(=O)N1C3CC1CN(C)C3)Cn1c-2c(C2CCCCC2)c2ccc(C(=O)NS(=O)(=O)C3CCCC3)cc21 (stereo not drawn) | 2.4 to 500 | 2.4 to 500 | –
14 | COc1ccc2c(c1)C1CC1(C(=O)N1CC3CN(Cc4ccccc4)CC(C1)N3Cc1ccccc1)Cn1c-2c(C2CCCCC2)c2ccc(C(=O)NS(=O)(=O)N(C)C)cc21 (stereo not drawn) | 2.4 to 500 | 500 to 5000 | –
15 | COc1ccc2c(c1)C1CC1(C(=O)N1C3CNCC1C3)Cn1c-2c(C2CCCCC2)c2ccc(C(=O)NS(=O)(=O)C3CC3)cc21 (stereo not drawn) | 2.4 to 500 | 2.4 to 500 | –
16 | COc1ccc2c(c1)C1CC1(C(=O)N1CCN3CCC1CC3)Cn1c-2c(C2CCCCC2)c2ccc(C(=O)NS(=O)(=O)N3CCC3)cc21 (stereo not drawn) | 2.4 to 500 | 2.4 to 500 | –
17 | COc1ccc2c(c1)C1CC1(C(=O)N1C3COC[C@@H]1CN(C)C3)Cn1c-2c(C2CCCCC2)c2ccc(C(=O)NS(=O)(=O)C3CCCCC3)cc21 (stereo partly drawn) | 2.4 to 500 | 2.4 to 500 | –
18 | COc1ccc2c(c1)C1CC1(C(=O)N1CC3CN(C)CC(C1)N3C)Cn1c-2c(C2CCCCC2)c2ccc(C(=O)NS(=O)(=O)N(C)C)cc21 (stereo not drawn) | 2.4 to 500 | 2.4 to 500 | –
19 | COc1ccc2c(c1)C1CC1(C(=O)N1C3CC1CN(C)C3)Cn1c-2c(C2CCCCC2)c2ccc(C(=O)NS(=O)(=O)CC3CCCO3)cc21 (stereo not drawn) | 2.4 to 500 | 2.4 to 500 | –
20 | CCC(C)S(=O)(=O)NC(=O)c1ccc2c(C3CCCCC3)c3n(c2c1)CC1(C(=O)N2CC4CCC2CN4)CC1c1cc(OC)ccc1-3 (stereo not drawn) | 2.4 to 500 | 500 to 5000 | –
21 | COc1ccc2c(c1)C1CC1(C(=O)N1CC3CN(C)CC(C1)N3)Cn1c-2c(C2CCCCC2)c2ccc(C(=O)NS(=O)(=O)N(C)C)cc21 (stereo not drawn) | 2.4 to 500 | 2.4 to 500 | –
22 | COc1ccc2c(c1)C=C(C(=O)N1C3CCCC1CN(C)C3)Cn1c-2c(C2CCCCC2)c2ccc(C(=O)NS(=O)(=O)N(C)C)cc21 | 2.4 to 500 | 2.4 to 500 | –
23 | COc1ccc2c(c1)C1CC1(C(=O)N1C3COCC1CN(C(C)=O)C3)Cn1c-2c(C2CCCCC2)c2ccc(C(=O)NS(=O)(=O)N(C)C)cc21 (stereo not drawn) | 2.4 to 500 | 2.4 to 500 | –
24 | COc1ccc2c(c1)C1CC1(C(=O)N1C3CC1CN(C)C3)Cn1c-2c(C2CCCCC2)c2ccc(C(=O)NS(=O)(=O)N3CCN(C)CC3)cc21 (stereo not drawn) | 2.4 to 500 | 2.4 to 500 | –
25 | COc1ccc2c(c1)C1CC1(C(=O)N1[C@@H]3C[C@H]1CN(Cc1ccccc1)C3)Cn1c-2c(C2CCCCC2)c2ccc(C(=O)NS(=O)(=O)N(C)C)cc21 (stereo partly drawn) | 2.4 to 500 | 2.4 to 500 | –
26 | COc1ccc2c(c1)C1CC1(C(=O)N1CC3(C)CN(C)CC(C)(C1)C3)Cn1c-2c(C2CCCCC2)c2ccc(C(=O)NS(C)(=O)=O)cc21 (stereo not drawn) | 2.4 to 500 | 2.4 to 500 | –
27 | COc1ccc2c(c1)C1CC1(C(=O)N1C3CN(C)CC1CN(C)C3)Cn1c-2c(C2CCCCC2)c2ccc(C(=O)NS(=O)(=O)N(C)C)cc21 (stereo not drawn) | 2.4 to 500 | 2.4 to 500 | –
